Assay results taken from article PMC6270845, “Fluorescent Probes for Insect Ryanodine Receptors: Candidate Anthranilic Diamides” (Molecules, 2014).
Where “and” joins values, the source holds several entries; their conditions need not be identical. Equal values may be shown once. Read-outs that look alike come from different tables or passages of the source.

Assays:
[1] = test system: Plutella larvae; experiment: Insecticidal activity, leaf-dip bioassay; conditions: fourth instar larvae, cabbage leaf-dip, mortality after 96 h
[2] = target: T1, house fly thoracic muscle RyR (Musca domestica, UniProt A0A9J7DBA3); parameters: method as in PMID 22856329; conditions: read-out: Stimulation of [3H]Ry binding (EC50), reported value; cited from earlier work
[3] = target: T1, house fly thoracic muscle RyR; parameters: method as in PMID 22856329; conditions: read-out: Inhibition of [3H]Chlo binding (IC50), reported value; cited from earlier work
[4] = target: T1, house fly thoracic muscle RyR; experiment: Inhibition of [3H]Chlo binding in Musca RyR radioligand assay; conditions: Musca muscle membrane, 1 nM [3H]Chlo, 2 h at 37 °C
Description: (§1) [^3H]Ry (95 Ci/mmol, Perkin-Elmer Life Sciences, Boston, MA, USA) and [^3H]Chlo (78 Ci/mmol) were used in RyR binding assays with house fly thorax muscle membranes as reported earlier. Adults emerging from pupae obtained from Benzon Research (Carlisle, PA, USA) were used to collect the thoraces for membrane preparation. The following two buffers were used: (A) 10 μM phenylmethanesulfonyl fluoride, 0.8% bovine serum albumin, and 303 mM sucrose in 20 mM Tris-maleate, pH 7.0; and (B) 0.8 mM CaCl2, 2 mM ATP·Mg^2+ salt, and 1.5 M KCl in 10 mM Hepes, pH 7.4. Incubation mixtures were prepared by sequential addition to culture tubes of 200 μL of buffer B, 200 μL of buffer A containing thorax muscle membranes (200 μg protein) and then ethanol (5 μL) containing [^3H]Ry or [^3H]Chlo to give a final radioligand concentration of 1 nM. Finally, test compounds were added in 5 μL ethanol to give the specified concentrations of Fluor-Cl and Fluor-CN. Following incubation for 2 h at 37 °C, the mixtures were filtered through GF/B filters (Whatman, presoaked in ice-cold washing buffer) immediately after dilution with 5 mL of ice-cold washing buffer (150 mM KCl, 10 mM Hepes, pH 7.4). Each assay tube was further rinsed twice with 5 mL of ice-cold washing buffer, and the rinses were passed through the same filter. […] Binding data were analyzed and plotted by GraphPad Prism 5.0. […]

[5] = target: T1, house fly thoracic muscle RyR; experiment: Stimulation of [3H]Ry binding in Musca RyR radioligand assay; conditions: Musca muscle membrane, 1 nM [3H]Ry, 2 h at 37 °C
Description: as §1

Structure (SMILES)	LC50 (95%CL) [1]	EC50 [2] [nM]	IC50 [3] [nM]	IC50 [4]	EC50 [5]
CNC(=O)c1cc(Cl)cc(C)c1NC(=O)c1cc(Br)nn1-c1ncccc1Cl [Chlo, chlorantraniliprole]	0.033(0.006–0.059) ppm	3 to 15	6 to 14		
CNC(=O)c1cc(C#N)cc(C)c1NC(=O)c1cc(Br)nn1-c1ncccc1Cl [Cyan, cyantraniliprole]	0.061(0.035–0.086) ppm	3 to 15	6 to 14		
Cc1cc(C(F)(C(F)(F)F)C(F)(F)F)ccc1NC(=O)c1cccc(I)c1C(=O)NC(C)(C)CS(C)(=O)=O [Flu, flubendiamide, reference compound]	0.056(0.037–0.068) ppm				
Cc1cc(C#N)cc(C(=O)NCc2cn(-c3cc4ccc(O)cc4oc3=O)nn2)c1NC(=O)c1cc(Br)nn1-c1ncccc1Cl [Fluor-CN, 3-Bromo-1-(3-chloropyridin-2-yl)-N-(4-cyano-2-((1-(7-hydroxy-2-oxo-2H-chromen-3-yl)-1H-1,2,3-triazol-4-yl)methylcarbamoyl)-6-methylphenyl)-1H-pyrazole-5-carboxamide]	7.57(4.57–11.77) ppm			34 to 39 nM and 39 nM	5 to 7 nM and 5 nM
C#CCNC(=O)c1cc(C#N)cc(C)c1NC(=O)c1cc(Br)nn1-c1ncccc1Cl [Prop-CN, 3-bromo-N-(4-cyano-2-methyl-6-(prop 2-ynylcarbamoyl)phenyl)-1-(3-chloropyridin-2-yl)-1H-pyrazole-5-carboxamide]	0.34(0.24–0.43) ppm				
C#CCNC(=O)c1cc(Cl)cc(C)c1NC(=O)c1cc(Br)nn1-c1ncccc1Cl [Prop-Cl, 3-Bromo-N-(4-chloro-2-methyl-6-(prop-2-ynylcarbamoyl)phenyl)-1-(3-chloropyridin-2-yl)-1H-pyrazole-5-carboxamide]	0.080(0.024–0.152) ppm				
